Data taken from US12522612B2, “PDE4 inhibitors, pharmaceutical compositions, and therapeutic applications” (BioTheryX, Inc., priority 2019, dated 2026).

How the values were obtained:
PDE4B = biological target: T1, PDE4B (Homo sapiens, UniProt Q07343); experiment: Protein degradation assay in A549 cells, western blot, PDE4B; assay type: cell-based; settings: 24 h treatment, read-out: PDE4B degradation relative to DMSO
T1 construct: Whole cell extracts were prepared using an immunoprecipitation (IP) lysis buffer; endogenous in cells; host or cells: A549
Method: (§1) A549 cells were grown in RPMI 1640 media supplemented with 10% fetal bovine serum, streptomycin, and penicillin. The cells were plated in 6-well plates in the growth media. The next day, fresh growth media were replaced on the cells. The cells were then treated with a compound for 24 h at predetermined concentrations. Whole cell extracts were prepared using an immunoprecipitation (IP) lysis buffer. Briefly, the cells were washed once in PBS, and the cell pellets were resuspended in the IP lysis buffer and incubated for 15 min on ice. Cells debris was removed by centrifugation and the cleared whole cell lysates were transferred to new tubes for further analysis.
(§2) For a western blot analysis, the whole cell protein extracts were separated on 4-12% SDS-polyacrylamide gels, transferred to nitrocellulose, and probed with primary antibodies. Membranes were subsequently washed and probed with IRDYE® secondary antibodies. The signals were detected using an ODYSSEY® Imaging System. The antibodies used in the assay included anti-PDE4B antibody; anti-PDE4D antibodies (top, bottom, and short isoform); β-actin mouse monoclonal antibody; IRDYE® 680RD goat anti-rabbit antibody; and IRDYE® 800CW goat anti-mouse antibody. Compounds B2 to B4, B18, B49 to B52, B76, B77, B79, B81 to B83, B88, B89, and B91 were determined to be able to degradate PDE4B as high as about 50% relative to DMSO.

TNF-α = experiment: Cell-based TNF-α inhibition assay in LPS-induced PBMCs (Meso Scale); settings: PBMC, PBMCs pretreated 1 h, LPS 100 ng/mL 18-24 h, relative to stimulated DMSO control; for inhibition at 0.1 µM: compound concentration 0.1 μM; for inhibition at 1 µM: compound concentration 1 μM
Procedure, shortened: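 Thawed human PBMCs (200,000/well) in RPMI/10% FBS were pretreated with compound or DMSO for 1 h, then stimulated with LPS (100 ng/mL) for 18-24 h. Supernatant TNF-α was measured by Meso Scale; activity expressed as percent of stimulated DMSO control (percent inhibition).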

PDE4D short isoform = experiment: Protein degradation assay in A549 cells, western blot, PDE4D; assay type: cell-based; settings: 24 h treatment, same conditions
Method: as §1, §2

T1 sequence (Q07343 whole entry): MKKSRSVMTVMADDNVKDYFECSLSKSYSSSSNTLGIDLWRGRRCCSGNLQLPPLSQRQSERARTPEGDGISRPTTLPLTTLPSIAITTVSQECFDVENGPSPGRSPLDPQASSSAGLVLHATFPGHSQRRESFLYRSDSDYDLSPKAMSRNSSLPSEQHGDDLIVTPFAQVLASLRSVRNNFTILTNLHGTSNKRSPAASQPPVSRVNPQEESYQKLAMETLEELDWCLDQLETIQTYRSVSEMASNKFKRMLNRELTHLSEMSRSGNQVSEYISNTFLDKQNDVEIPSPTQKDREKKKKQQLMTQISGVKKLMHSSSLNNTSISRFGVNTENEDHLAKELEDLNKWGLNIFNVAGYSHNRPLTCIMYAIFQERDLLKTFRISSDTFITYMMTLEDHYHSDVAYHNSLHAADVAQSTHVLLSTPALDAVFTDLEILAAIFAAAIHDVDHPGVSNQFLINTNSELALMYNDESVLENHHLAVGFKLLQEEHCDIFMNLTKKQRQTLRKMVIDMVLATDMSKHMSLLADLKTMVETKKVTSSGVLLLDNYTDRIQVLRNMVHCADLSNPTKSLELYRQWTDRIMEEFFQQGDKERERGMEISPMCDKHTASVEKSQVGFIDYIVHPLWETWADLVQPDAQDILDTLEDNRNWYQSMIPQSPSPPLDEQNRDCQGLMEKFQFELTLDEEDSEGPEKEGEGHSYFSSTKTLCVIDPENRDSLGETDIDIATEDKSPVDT

Row | SMILES | Dmax (PDE4B) | inhibition at 0.1 µM (TNF-α) | inhibition at 1 µM (TNF-α) | PDE4D degradation (result in words) (PDE4D short isoform)
1 | O=C1CCC(N2Cc3c(cc(F)cc3C3CCN(CCCCCCCN(C(=O)c4ccc(OC(F)F)c(OCC5CC5)c4)c4c(Cl)cncc4Cl)CC3)C2=O)C(=O)N1 (centres unmarked) [Compound B3, 3-(Cyclopropylmethoxy)-N-(3,5-dichloropyridin-4-yl)-4-(difluoromethoxy)-N-(7-(4-(2-(2,6-dioxopiperidin-3-yl)-6-fluoro-1-oxoisoindolin-4-yl)piperidin-1-yl)heptyl)benzamide] | ≤ 50% | < 20% | < 20% | –
2 | O=C1CCC(N2Cc3c(cc(F)cc3C3CCN(CCCCCCCOc4cc(C(=O)Nc5c(Cl)cncc5Cl)ccc4OC(F)F)CC3)C2=O)C(=O)N1 (centres unmarked) [Compound B4, N-(3,5-dichloropyridin-4-yl)-4-(difluoromethoxy)-3-((7-(4-(2-(2,6-dioxopiperidin-3-yl)-6-fluoro-1-oxoisoindolin-4-yl)piperidin-1-yl)heptyl)oxy)benzamide] | ≤ 50% | ≥ 60% | ≥ 60% | –
3 | O=C1CCC(N2Cc3c(C#CC4CCN(C(=O)CCCCOc5cc(C(=O)Nc6c(Cl)cncc6Cl)ccc5OC(F)F)CC4)cccc3C2=O)C(=O)N1 (centres unmarked) [Compound B18, N-(3,5-Dichloropyridin-4-yl)-4-(difluoromethoxy)-3-((5-(4-((2-(2,6-dioxopiperidin-3-yl)-1-oxoisoindolin-4-yl)ethynyl)piperidin-1-yl)-5-oxopentyl)oxy)benzamide] | ≤ 50% | ≥ 60% | ≥ 60% | –
4 | COc1ccc(N2Cc3ccccc3C2=O)cc1OCCCCCCCN1CCC(c2cc(F)cc3c2CN(C2CCC(=O)NC2=O)C3=O)CC1 (centres unmarked) [Compound B49, 3-(6-Fluoro-4-(1-(7-(2-methoxy-5-(1-oxoisoindolin-2-yl)phenoxy)heptyl)piperidin-4-yl)-1-oxoisoindolin-2-yl)piperidine-2,6-dione] | ≤ 50% | – | < 20% | –
5 | O=C1CCC(N2Cc3c(cc(F)cc3C3CCN(CCCCCCCOc4ccc(N5Cc6ccccc6C5=O)cc4OC4CCCC4)CC3)C2=O)C(=O)N1 (centres unmarked) [Compound B50, 3-(4-(1-(7-(2-(Cyclopentyloxy)-4-(1-oxoisoindolin-2-yl)phenoxy)heptyl)piperidin-4-yl)-6-fluoro-1-oxoisoindolin-2-yl)piperidine-2,6-dione] | ≤ 50% | – | < 20% | –
6 | COc1ccc(N2C(=O)c3ccccc3C2=O)cc1OCCCCCCCN1CCC(c2cc(F)cc3c2CN(C2CCC(=O)NC2=O)C3=O)CC1 (centres unmarked) [Compound B51, 2-(3-((7-(4-(2-(2,6-Dioxopiperidin-3-yl)-6-fluoro-1-oxoisoindolin-4-yl)piperidin-1-yl)heptyl)oxy)-4-methoxyphenyl)isoindoline-1,3-dione] | ≤ 50% | – | 20 to 40% | –
7 | COc1ccc(N2C(=O)c3ccc(N)cc3C2=O)cc1OCCCCCCCN1CCC(c2cc(F)cc3c2CN(C2CCC(=O)NC2=O)C3=O)CC1 (centres unmarked) [Compound B52, 5-Amino-2-(3-((7-(4-(2-(2,6-dioxopiperidin-3-yl)-6-fluoro-1-oxoisoindolin-4-yl)piperidin-1-yl)heptyl)oxy)-4-methoxyphenyl)isoindoline-1,3-dione] | ≤ 50% | – | < 20% | –
8 | Cc1ncsc1-c1ccc(CNC(=O)[C@@H]2C[C@@H](O)CN2C(=O)[C@@H](NC(=O)CCCCCCCCCCOc2cc(C(=O)Nc3c(Cl)cncc3Cl)ccc2OC(F)F)C(C)(C)C)cc1 [Compound B76, (2S,4R)-1-((S)-2-(11-(5-((3,5-Dichloropyridin-4-yl)carbamoyl)-2-(difluoromethoxy)phenoxy)undecanamido)-3,3-dimethylbutanoyl)-4-hydroxy-N-(4-(4-methylthiazol-5-yl)benzyl)pyrrolidine-2-carboxamide] | ≤ 50% | ≥ 60% | ≥ 60% | –
9 | CCOc1cc([C@@H](CS(C)(=O)=O)N2C(=O)c3cccc(NC(=O)CCCCCCCCN4CCC(c5cc(F)cc6c5CN(C5CCC(=O)NC5=O)C6=O)CC4)c3C2=O)ccc1OC (stereo partly drawn) [Compound B77, 9-(4-(2-(2,6-Dioxopiperidin-3-yl)-6-fluoro-1-oxoisoindolin-4-yl)piperidin-1-yl)-N-(2-((S)-1-(3-ethoxy-4-methoxyphenyl)-2-(methylsulfonyl)ethyl)-1,3-dioxoisoindolin-4-yl)nonanamide] | ≤ 50% | 40 to 60% | ≥ 60% | –
10 | CCOc1cc([C@@H](CS(C)(=O)=O)N2C(=O)c3cc(CCCCCCCCCCCCN4CCC(c5cc(F)cc6c5CN(C5CCC(=O)NC5=O)C6=O)CC4)cc(NC(C)=O)c3C2=O)ccc1OC (stereo partly drawn) [Compound B79, N-(6-(12-(4-(2-(2,6-Dioxopiperidin-3-yl)-6-fluoro-1-oxoisoindolin-4-yl)piperidin-1-yl)dodecyl)-2-((S)-1-(3-ethoxy-4-methoxyphenyl)-2-(methylsulfonyl)ethyl)-1,3-dioxoisoindolin-4-yl)acetamide] | ≤ 50% | ≥ 60% | ≥ 60% | –
11 | O=C1CCC(N2Cc3c(cc(F)cc3C3CCN(CCCOc4cc(C(=O)Nc5c(Cl)cncc5Cl)ccc4OC(F)F)CC3)C2=O)C(=O)N1 (centres unmarked) [Compound B83, N-(3,5-Dichloropyridin-4-yl)-4-(difluoromethoxy)-3-(3-(4-(2-(2,6-dioxopiperidin-3-yl)-6-fluoro-1-oxoisoindolin-4-yl)piperidin-1-yl)propoxy)benzamide] | ≤ 50% | – | 20 to 40% | –
12 | CCOc1cc([C@@H](CS(C)(=O)=O)N2C(=O)c3cccc(NC(C)=O)c3C2=O)ccc1OC [apremilast] | – | – | – | did not degradate the PDE4D
